From the supplement of paper PMC10307832

Experiments:
Experiment in all cases: relative viability (nuclei count vs DMSO), 5 days (fraction); higher = more cells survive
LCLC-97TM1 = tested on: LCLC-97TM1
Procedure, shortened: (§1)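 One day after seeding in 1536-well plates, lung cancer cell lines were dosed by pin tool. Dosing was either single-drug or a fixed anchor-drug dose plus five library-drug doses (not always all listed) in √10 steps. After 5 days, nuclei were stained in one fix-and-stain step and counted on 4× images, and relative viability is the nuclei count of treated wells over that of vehicle wells, given as the median of duplicate plates.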

NCI-H1793 = tested on: NCI-H1793
Procedure, shortened: as §1

SW 1573 = tested on: SW 1573
Procedure, shortened: as §1

PC-3 [JPC-3] = tested on: PC-3 [JPC-3]
Procedure, shortened: as §1

NCI-H2347 = tested on: NCI-H2347
Procedure, shortened: as §1

NCI-H520 = tested on: NCI-H520
Procedure, shortened: as §1

NCI-H1650 = tested on: NCI-H1650
Procedure, shortened: as §1

NCI-H2228 = tested on: NCI-H2228
Procedure, shortened: as §1

NCI-H1915 = tested on: NCI-H1915
Procedure, shortened: as §1

RERF-LC-KJ = tested on: RERF-LC-KJ
Procedure, shortened: as §1

LOU-NH91 = tested on: LOU-NH91
Procedure, shortened: as §1

BEN = tested on: BEN
Procedure, shortened: as §1

NCI-H1666 = tested on: NCI-H1666
Procedure, shortened: as §1

NCI-H1993 = tested on: NCI-H1993
Procedure, shortened: as §1

A-427 = tested on: A-427
Procedure, shortened: as §1

NCI-H460 = tested on: NCI-H460
Procedure, shortened: as §1

NCI-H23 = tested on: NCI-H23
Procedure, shortened: as §1

EKVX = tested on: EKVX
Procedure, shortened: as §1

LC-2-ad = tested on: LC-2-ad
Procedure, shortened: as §1

LU99A = tested on: LU99A
Procedure, shortened: as §1

NCI-H838 = tested on: NCI-H838
Procedure, shortened: as §1

NCI-H650 = tested on: NCI-H650
Procedure, shortened: as §1

NCI-H1355 = tested on: NCI-H1355
Procedure, shortened: as §1

O=c1[nH]c2ccccc2n1C1CCN(CCCC(c2ccc(F)cc2)c2ccc(F)cc2)CC1 [Pimozide] + Nc1nc2[nH]cc(CCc3ccc(C(=O)N[C@@H](CCC(=O)O)C(=O)O)cc3)c2c(=O)[nH]1 [Pemetrexed] (partner 0.2 µM)
relative viability (LCLC-97TM1; first compound 0.08 µM): 0.2 | relative viability (LCLC-97TM1; first compound 0.253 µM): 0.177 | relative viability (LCLC-97TM1; first compound 0.8 µM): 0.19 | relative viability (LCLC-97TM1; first compound 2.53 µM): 0.18 | relative viability (LCLC-97TM1; first compound 8 µM): 0.156 | relative viability (NCI-H1793; first compound 0.08 µM): 0.807 | relative viability (NCI-H1793; first compound 0.253 µM): 0.798 | relative viability (NCI-H1793; first compound 0.8 µM): 0.8 | relative viability (NCI-H1793; first compound 2.53 µM): 0.829 | relative viability (NCI-H1793; first compound 8 µM): 0.676 | relative viability (SW 1573; first compound 0.08 µM): 0.852 | relative viability (SW 1573; first compound 0.253 µM): 0.849 | relative viability (SW 1573; first compound 0.8 µM): 0.831 | relative viability (SW 1573; first compound 2.53 µM): 0.665 | relative viability (SW 1573; first compound 8 µM): 0.558 | relative viability (PC-3 [JPC-3]; first compound 0.253 µM): 1.08 | relative viability (PC-3 [JPC-3]; first compound 0.8 µM): 1.04 | relative viability (PC-3 [JPC-3]; first compound 2.53 µM): 1.08 | relative viability (PC-3 [JPC-3]; first compound 8 µM): 0.985 | relative viability (NCI-H2347; first compound 0.08 µM): 0.406 | relative viability (NCI-H2347; first compound 0.253 µM): 0.449 | relative viability (NCI-H2347; first compound 0.8 µM): 0.42 | relative viability (NCI-H2347; first compound 2.53 µM): 0.368 | relative viability (NCI-H2347; first compound 8 µM): 0.475 | relative viability (NCI-H520; first compound 0.08 µM): 0.651 | relative viability (NCI-H520; first compound 0.253 µM): 0.723 | relative viability (NCI-H520; first compound 0.8 µM): 0.739 | relative viability (NCI-H520; first compound 2.53 µM): 0.734 | relative viability (NCI-H520; first compound 8 µM): 0.575 | relative viability (NCI-H1650; first compound 0.08 µM): 0.338 | relative viability (NCI-H1650; first compound 0.253 µM): 0.341 | relative viability (NCI-H1650; first compound 0.8 µM): 0.326 | relative viability (NCI-H1650; first compound 2.53 µM): 0.356 | relative viability (NCI-H1650; first compound 8 µM): 0.408 | relative viability (NCI-H2228; first compound 0.08 µM): 0.329 | relative viability (NCI-H2228; first compound 0.253 µM): 0.369 | relative viability (NCI-H2228; first compound 0.8 µM): 0.306 | relative viability (NCI-H2228; first compound 2.53 µM): 0.334 | relative viability (NCI-H2228; first compound 8 µM): 0.229 | relative viability (NCI-H1915; first compound 0.08 µM): 0.482 | relative viability (NCI-H1915; first compound 0.253 µM): 0.415 | relative viability (NCI-H1915; first compound 2.53 µM): 0.448 | relative viability (NCI-H1915; first compound 8 µM): 0.423 | relative viability (RERF-LC-KJ; first compound 0.08 µM): 0.452 | relative viability (RERF-LC-KJ; first compound 0.253 µM): 0.47 | relative viability (RERF-LC-KJ; first compound 0.8 µM): 0.466 | relative viability (RERF-LC-KJ; first compound 2.53 µM): 0.347 | relative viability (RERF-LC-KJ; first compound 8 µM): 0.422 | relative viability (LOU-NH91; first compound 0.08 µM): 0.389 | relative viability (LOU-NH91; first compound 0.253 µM): 0.474 | relative viability (LOU-NH91; first compound 0.8 µM): 0.395 | relative viability (LOU-NH91; first compound 2.53 µM): 0.384 | relative viability (LOU-NH91; first compound 8 µM): 0.384 | relative viability (BEN; first compound 0.08 µM): 0.856 | relative viability (BEN; first compound 0.253 µM): 0.689 | relative viability (BEN; first compound 0.8 µM): 0.766 | relative viability (BEN; first compound 2.53 µM): 0.708 | relative viability (BEN; first compound 8 µM): 0.837 | relative viability (NCI-H1666; first compound 0.08 µM): 0.808 | relative viability (NCI-H1666; first compound 0.253 µM): 0.809 | relative viability (NCI-H1666; first compound 0.8 µM): 0.834 | relative viability (NCI-H1666; first compound 2.53 µM): 0.891 | relative viability (NCI-H1666; first compound 8 µM): 0.782 | relative viability (NCI-H1993; first compound 0.08 µM): 0.487 | relative viability (NCI-H1993; first compound 0.253 µM): 0.548 | relative viability (NCI-H1993; first compound 0.8 µM): 0.512 | relative viability (NCI-H1993; first compound 2.53 µM): 0.482 | relative viability (NCI-H1993; first compound 8 µM): 0.501 | relative viability (A-427; first compound 0.08 µM): 0.992 | relative viability (A-427; first compound 0.253 µM): 0.979 | relative viability (A-427; first compound 0.8 µM): 0.928 | relative viability (A-427; first compound 2.53 µM): 0.899 | relative viability (A-427; first compound 8 µM): 0.845 | relative viability (NCI-H460; first compound 0.08 µM): 0.05 | relative viability (NCI-H460; first compound 0.253 µM): 0.0643 | relative viability (NCI-H460; first compound 0.8 µM): 0.0627 | relative viability (NCI-H460; first compound 2.53 µM): 0.0654 | relative viability (NCI-H460; first compound 8 µM): 0.0685 | relative viability (NCI-H23; first compound 0.08 µM): 0.64 | relative viability (NCI-H23; first compound 0.253 µM): 0.716 | relative viability (NCI-H23; first compound 0.8 µM): 0.609 | relative viability (NCI-H23; first compound 2.53 µM): 0.59 | relative viability (NCI-H23; first compound 8 µM): 0.591 | relative viability (EKVX; first compound 0.253 µM): 0.336 | relative viability (EKVX; first compound 0.8 µM): 0.362 | relative viability (EKVX; first compound 2.53 µM): 0.397 | relative viability (EKVX; first compound 8 µM): 0.412 | relative viability (LC-2-ad; first compound 0.08 µM): 0.275 | relative viability (LC-2-ad; first compound 0.253 µM): 0.288 | relative viability (LC-2-ad; first compound 0.8 µM): 0.259 | relative viability (LC-2-ad; first compound 2.53 µM): 0.265 | relative viability (LC-2-ad; first compound 8 µM): 0.254 | relative viability (LU99A; first compound 0.08 µM): 0.277 | relative viability (LU99A; first compound 0.8 µM): 0.179 | relative viability (LU99A; first compound 2.53 µM): 0.185 | relative viability (LU99A; first compound 8 µM): 0.191 | relative viability (NCI-H838; first compound 0.08 µM): 0.251 | relative viability (NCI-H838; first compound 0.253 µM): 0.242 | relative viability (NCI-H838; first compound 0.8 µM): 0.238 | relative viability (NCI-H838; first compound 2.53 µM): 0.236 | relative viability (NCI-H838; first compound 8 µM): 0.221 | relative viability (NCI-H650; first compound 0.08 µM): 0.939 | relative viability (NCI-H650; first compound 0.253 µM): 0.936 | relative viability (NCI-H650; first compound 0.8 µM): 0.793 | relative viability (NCI-H650; first compound 2.53 µM): 0.914 | relative viability (NCI-H650; first compound 8 µM): 1.02 | relative viability (NCI-H1355; first compound 0.08 µM): 1.07 | relative viability (NCI-H1355; first compound 0.253 µM): 1.01 | relative viability (NCI-H1355; first compound 0.8 µM): 0.878 | relative viability (NCI-H1355; first compound 2.53 µM): 1.03 | relative viability (NCI-H1355; first compound 8 µM): 1.01
